Data from PubChem BioAssay AID504901 (Southern Research Specialized Biocontainment Screening …, 2011).
“And” between values parts separate entries of the source, which are not always exact repeats. Identical values can stand only once. The source made the active and inactive calls. The rule behind the calls is not given here.

Experiments:
[1] = Mycobacterium tuberculosis H37Rv growth inhibition, no glycerol, confirmatory dose response (AID 504901); details: Mycobacterium tuberculosis H37Rv growth inhibition, no glycerol; at 50 µM (top of the series)
[2] = test system: Mycobacterium tuberculosis H37Rv growth inhibition, no glycerol; experiment: as above; details: for IC50: measured here: IC50 of growth inhibition

With `CCC(Sc1nc2c(c(=O)[nH]1)CCC2)C(=O)Nc1cccc(OC)c1` (stereo not given) the inhibition [1] was 3.19% (inactive).
In the case of `CCOC1OC(=O)C(Cl)=C1Nc1ccccc1C` (stereo not given), the IC90 [2] is reported as 5870 nM and the IC50 [2] is reported as 3110 nM.
With `O=C(CSc1nc2c(c(=O)[nH]1)CCC2)NC1CCCCC1` the IC90 [2] was under 110 nM and the IC50 [2] was under 70 nM.
For `O=C(CSc1nc2ccccc2c(=O)[nH]1)NC1CCCCC1`, the IC90 [2] was 510 nM and 80 nM.
Work on `CCCc1cc(C(N)=S)ccn1` yielded an IC90 [2] of 50000 nM and an IC50 [2] of 8840 nM.
Molecule `Cc1cccc(/C=C/C(=O)c2ccc([N+](=O)[O-])o2)c1` has an IC90 [2] of 2060 nM and an IC50 [2] of 1360 nM.
With `O=c1[nH]c(=S)[nH]c2ccccc12` the inhibition [1] was -9.52% (inactive).
With `Cc1nc(SCc2ccccc2Cl)[nH]c(=O)c1C` the inhibition [1] was -13.7% (inactive).
With `COc1cccc(NC(=O)CSc2nc3ccccc3c(=O)[nH]2)c1` the inhibition [1] was -14.5% (inactive).
With `O=C(CSc1ncccn1)NC1CCCCC1` the inhibition [1] was -1.46% (inactive).
Molecule `NC[C@H]1O[C@H](O[C@H]2[C@H](O)[C@@H](O[C@H]3O[C@H](CO)[C@@H](O)[C@H](N)[C@H]3O)[C@H](N)C[C@@H]2N)[C@H](O)[C@@H](O)[C@@H]1O` has an IC90 [2] of 2470 nM and an IC50 [2] of 2010 nM.
For `O=C(CSc1ccccn1)NC1CCCCC1`, the inhibition [1] was 3.21% (inactive).
`CC(C)CCNC(=O)CSc1nc2ccccc2c(=O)[nH]1` gave an IC90 [2] of 500 nM and an IC50 [2] of under 140 nM.
In the case of `Nc1cc(=O)[nH]c(SCC(=O)NC2CCCCC2)n1`, the inhibition [1] is reported as -6.39% (inactive).
With `Cc1cnc(SCC(=O)NC2CCCCC2)[nH]c1=O` the inhibition [1] was -9.54% (inactive).
With `CC1CCN(C(=O)CSc2nc3ccccc3c(=O)[nH]2)CC1` the inhibition [1] was -4.55% (inactive).
For `Cc1cc(=O)[nH]c(=S)[nH]1`, the inhibition [1] was -7.95% (inactive).
`Cc1nc(SCC(=O)NCCC(C)C)[nH]c(=O)c1C` showed an IC90 [2] of 12800 nM and an IC50 [2] of 8990 nM.
With `COC(=O)C(C)Oc1ccc(Cc2ncc(C(F)(F)F)cc2Cl)cc1` (stereo not given) the IC90 [2] was 5610 nM and the IC50 [2] was 3950 nM.
With `Cc1nc(SCC(=O)NC2CCCC2)[nH]c(=O)c1C` the IC90 [2] was 13800 nM and the IC50 [2] was 9690 nM.
In the case of `COC(=O)C(Nc1nc(SCC(=O)NC2CCCCC2)nc2ccccc12)c1ccccc1` (stereo not given), the inhibition [1] is reported as -3.62% (inactive).
With `CCSc1nc2ccccc2c(=O)[nH]1` the inhibition [1] was 1.1% (inactive).
Molecule `CN[C@@H]1[C@H](O[C@H]2[C@H](O[C@H]3[C@H](O)[C@@H](O)[C@H](N=C(N)N)[C@@H](O)[C@@H]3N=C(N)N)O[C@@H](C)[C@]2(O)C=O)O[C@@H](CO)[C@H](O)[C@H]1O` has an IC90 [2] of 220 nM and an IC50 [2] of 150 nM.
Work on `CC(C)CNC(=O)CSc1nc2ccccc2c(=O)[nH]1` yielded an IC90 [2] of 790 nM and an IC50 [2] of 410 nM.
In the case of `Cc1ccc(C(=O)N/N=C(/CC(=O)c2cccs2)C(F)(F)F)cc1`, the IC90 [2] is reported as 3580 nM and the IC50 [2] is reported as 2560 nM.
For `CC(Sc1nc2ccccc2c(=O)[nH]1)C(=O)NC1CCCCC1` (stereo not given), the inhibition [1] was -6.09% (inactive).
For `CN1CCC(NC(=O)CSc2nc3ccccc3c(=O)[nH]2)CC1`, the inhibition [1] was -11.8% (inactive).
With `CNC(=O)CSc1nc2ccccc2c(=O)[nH]1` the inhibition [1] was 11.7% (inactive).
In the case of `CN(C)C(=O)CSc1nc2ccccc2c(=O)[nH]1`, the inhibition [1] is reported as -6.71% (inactive).
In the case of `O=C(CSc1nccc(=O)[nH]1)NC1CCCCC1`, the inhibition [1] is reported as -0.32% (inactive).
In the case of `Cn1c(SCC(=O)NC2CCCCC2)nc2ccccc2c1=O`, the inhibition [1] is reported as -9.98% (inactive).
Work on `COc1c(N2CCNC(C)C2)c(F)cc2c(=O)c(C(=O)O)cn(C3CC3)c12` (stereo not given) yielded an IC50 [2] of 140 nM.
Molecule `CCOc1ccc(-c2cc(C)[n+](CCc3ccc(OC)c(OC)c3)c(-c3ccc(OCC)cc3)c2)cc1` has an IC90 [2] of 1120 nM and an IC50 [2] of 710 nM.
`CC(C)CCNC(=O)CSc1nc2c(c(=O)[nH]1)CCC2` showed an IC90 [2] of 1720 nM and an IC50 [2] of 1400 nM.
With `CC[N+](C)(CC)CCCCOc1ccc2c(c1)C(=O)c1cc(OCCCC[N+](C)(CC)CC)ccc1-2` the IC50 [2] was 1900 nM.
`Cc1nc(SCC(=O)NC2CCCCC2)[nH]c(=O)c1C` showed an IC90 [2] of 3780 nM and an IC50 [2] of 650 nM.
In the case of `Cc1cc(Br)ccc1NC(=O)c1cnc(N2CCN(c3ccccn3)CC2)c2ccccc12`, the IC90 [2] is reported as 50000 nM and the IC50 [2] is reported as 3420 nM.
In the case of `Cc1ccc(NC(=O)CSc2nc3ccccc3c(=O)[nH]2)cc1Cl`, the inhibition [1] is reported as -3.41% (inactive).
In the case of `CN(C(=O)CSc1nc2ccccc2c(=O)[nH]1)C1CCCCC1`, the inhibition [1] is reported as -7.16% (inactive).
With `O=C(CSc1nc2c(c(=O)[nH]1)CCCC2)NC1CCCCC1` the IC90 [2] was 160 nM and the IC50 [2] was 90 nM.
Work on `CC(C)N=c1cc2n(-c3ccc(Cl)cc3)c3ccccc3nc-2cc1Nc1ccc(Cl)cc1` yielded an IC50 [2] of over 140 nM.
`CCCCNC(=O)CSc1nc2ccccc2c(=O)[nH]1` gave an IC90 [2] of 1060 nM and an IC50 [2] of 320 nM.
With `NC(=O)CSc1nc2ccccc2c(=O)[nH]1` the inhibition [1] was -10.9% (inactive).
With `CCOC(=O)CSc1nc(C)c(C)c(=O)[nH]1` the inhibition [1] was -7.41% (inactive).
Molecule `Cc1cccc(-c2oc3ccc(-c4ccc5c(c4)OCO5)cc3c2C#Cc2cncn2C)c1` has an IC90 [2] of 2960 nM and an IC50 [2] of 2360 nM.
In the case of `COC(=O)c1ccc(CNc2c(N3CCCC3)c(=O)c2=O)cc1`, the inhibition [1] is reported as -8.74% (inactive).
In the case of `NC(=O)c1cnccn1`, the inhibition [1] is reported as 1.71% (inactive).
`CC1CCN(C(=O)C2CCN(c3nnc(-n4cccc4)s3)CC2)CC1` showed an IC90 [2] of 6400 nM and an IC50 [2] of 3290 nM.
In the case of `Cc1c[nH]c(=S)[nH]c1=O`, the inhibition [1] is reported as -2.94% (inactive).
For `COc1cccc(NC(=O)CSc2nc3c(c(=O)[nH]2)CCC3)c1`, the inhibition [1] was 4.58% (inactive).
In the case of `CCSc1nc(C)c(C)c(=O)[nH]1`, the inhibition [1] is reported as -2.72% (inactive).
With `Cc1[nH]c(=S)[nH]c(=O)c1C` the inhibition [1] was 3.12% (inactive).
`CO[C@H]1/C=C/O[C@@]2(C)Oc3c(C)c(O)c4c(O)c(c(C=NN5CCN(C)CC5)c(O)c4c3C2=O)NC(=O)/C(C)=C\C=C\[C@H](C)[C@H](O)[C@@H](C)[C@@H](O)[C@@H](C)[C@H](OC(C)=O)[C@@H]1C` showed an IC50 [2] of 10 nM.
Molecule `CC(C)NC(=O)CSc1nc2ccccc2c(=O)[nH]1` has an IC90 [2] of 14600 nM and an IC50 [2] of 9570 nM.
With `Cc1cc(=O)[nH]c(SCC(=O)NC2CCCCC2)n1` the inhibition [1] was -0.58% (inactive).
Work on `Cc1ccc(NC(=O)COC(=O)CCc2c[nH]c3ccccc23)cc1[N+](=O)[O-]` yielded an IC90 [2] of 7750 nM and an IC50 [2] of 2730 nM.
With `O=C(CSc1nc2ccccc2c(=O)[nH]1)NC1CCCC1` the IC90 [2] was 500 nM and the IC50 [2] was 330 nM.
In the case of `O=C(CSc1nc2ccccc2c(=O)[nH]1)N1CCOCC1`, the inhibition [1] is reported as 0.57% (inactive).
With `Cc1cc(C)n2nc(N)c(N=Nc3ccccc3)c2n1` the IC90 [2] was 5960 nM and the IC50 [2] was 4550 nM.
For `CCC(Sc1nc2ccccc2c(=O)[nH]1)C(=O)NC1CCCCC1` (stereo not given), the inhibition [1] was -7.27% (inactive).
For `Cc1nc(SCC(=O)N(C)c2ccccc2)[nH]c(=O)c1C`, the inhibition [1] was -3.18% (inactive).
`Nc1c(C(=O)NC2CCCCC2)nsc1C(=O)OCC(=O)NC1CCCCC1` showed an IC90 [2] of 6830 nM and an IC50 [2] of 4100 nM.
For `COc1ccc(NC(=O)CSc2nc3ccccc3c(=O)[nH]2)cc1`, the inhibition [1] was -9.6% (inactive).
With `CCC(Sc1nc2ccccc2c(=O)[nH]1)C(=O)Nc1cccc(OC)c1` (stereo not given) the inhibition [1] was -3.07% (inactive).
With `O=C(CSc1nc2ccccc2c(=O)[nH]1)NCc1ccc(Cl)cc1` the IC90 [2] was 1470 nM and the IC50 [2] was 1030 nM.
With `O=c1[nH]c(SCc2ccccc2Cl)nc2c1CCCC2` the inhibition [1] was -5.59% (inactive).
For `Cc1[nH]c2ccccc2c1C(=O)COC(=O)c1ccc([N+](=O)[O-])s1`, the IC90 [2] was 27600 nM and the IC50 [2] was 26400 nM.
In the case of `Cc1nc(SCC(N)=O)[nH]c(=O)c1C`, the inhibition [1] is reported as -0.93% (inactive).
